Results as given in patent publication US8541447B2 (priority 2003, dated 2013).
Where two headings read alike, the source gives them in different places.

Target: muscarinic M3 receptor (Homo sapiens (Human), UniProt P20309)
Type: binding

With `O=C(Nc1ccc(Br)cc1)OC1C2CCN(CC2)C1Cc1cccnc1` (centres unmarked) [Compound 1, 2-((3-pyridinyl)methyl)-1-azabicyclo[2.2.2]oct-3-yl N-(4-bromophenyl)carbamate] the “ability to inhibit [3H]QNB binding at muscarinic sites” value (from here on “ability to inhibit [3H]QNB binding”) was “None of the compounds was able to inhibit [^3H]QNB binding”.

`O=C(Nc1ccccc1)OC1C2CCN(CC2)C1Cc1cccnc1` (centres unmarked) [Compound 2, 2-((3-pyridinyl)methyl)-1-azabicyclo[2.2.2]oct-3-yl N-phenylcarbamate] was tested, and the “ability to inhibit [3H]QNB binding” value was “None of the compounds was able to inhibit [^3H]QNB binding”.

With `COc1ccc(NC(=O)OC2C3CCN(CC3)C2Cc2cccnc2)cc1` (centres unmarked) [Compound 4, 2-((3-pyridinyl)methyl)-1-azabicyclo[2.2.2]oct-3-yl N-(4-methoxyphenyl)carbamate] the “ability to inhibit [3H]QNB binding” value was “None of the compounds was able to inhibit [^3H]QNB binding”.

`O=C(NC1C2CCN(CC2)C1Cc1cccnc1)c1cc2ccccc2o1` (centres unmarked) [Compound 9, N-(2-((3-pyridinyl)methyl)-1-azabicyclo[2.2.2]oct-3-yl)benzofuran-2-carboxamide] was tested, and the “ability to inhibit [3H]QNB binding” value (human clonal line TE671/RD) was “None of the compounds was able to inhibit [^3H]QNB binding”.

`O=C(NC1C2CCN(CC2)C1Cc1cccnc1)c1ccc(Sc2ccccc2)cc1` (centres unmarked) [Compound 11] was tested, and the “ability to inhibit [3H]QNB binding” value (human clonal line TE671/RD) was “None of the compounds was able to inhibit [^3H]QNB binding”.
